Laboratory results reported in patent publication US8445636B2, “Antimicrobial and anticancer lipopeptides” (Yeda Research & Development Co. Ltd., priority 2003, dated 2013).
In brackets after ≈: the same amount, converted by molar mass. Where two headings read alike, the source gives them in different places. Non-standard residues stand in square brackets, D forms with d. Residues, ends and D or L forms follow the SMILES beside them. *: point of attachment. Palmitoyl = CCCCCCCCCCCCCCCC(=O)*; Undecanoyl = CCCCCCCCCCC(=O)*; Lauroyl = CCCCCCCCCCCC(=O)*

What was measured:
Assay type in all cases: cell-based
B. subtilis ATCC 6051 = details: ATCC 6051
[1] = system: Cryptococcus neoformans ATCC MYA-422; assay: microbe, parasite or virus in culture; details: Table 17, D-magainin analog; mean of 3 experiments, standard deviation of 25%; read-out: Minimal Inhibitory Concentration, Cyrptococcus neoformans (ATCC MYA-422)
[2] = system: Aspergillus fumigatus ATCC 26430; assay: microbe, parasite or virus in culture
[3] = system: Staphylococcus aureus ATCC 6538P
Method in brief: (§1)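 MIC = lowest concentration with 100% growth inhibition, judged from A600 after 18-20 h incubation at 37° C. Bacteria at 1×10^6 CFU/ml in LB (pH 7.4 unless pH 5.5 stated) combined with equal volume of serially 2-fold diluted lipopeptide.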

[4] = system: Pseudomonas aeruginosa ATCC 27853
Method in brief: as §1

[5] = system: Escherichia coli ATCC 25922
Method in brief: as §1

[6] = system: Candida albicans ATCC 10231; assay: microbe, parasite or virus in culture; details: for MIC: ATCC 10231, read-out: Minimal Inhibitory Concentration, Candida Albicans (ATCC 10231)
Method in brief: (§2)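 In this assay, each strain, prepared at 1×10^4 CFU/ml before mixing, met serial twofold peptide dilutions in RPMI 1640 buffered with 0.165 M MOPS. Unless noted, pH was 7.4; a pH 5.5 condition was also run. After 24-48 h incubation (35 °C, agitated), wells were scored at 620 nm for total inhibition.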

[7] = system: human red blood cells (hRBC); assay: Hemolytic activity, release of hemoglobin at 540 nm; details: for % of Hemolytic activity at maximal MIC: human
Method: Fresh human red blood cells (hRBC) with EDTA were rinsed 3 times with PBS (35 mM phosphate buffer/0.15 M NaCl, pH 7.3) by centrifugation for 10 min at 800 g and resuspended in PBS. Peptides dissolved in PBS were then added to 50 μl of a solution of the stock hRBC in PBS to reach a final volume of 100 μl (final erythrocyte concentration, 4% v/v). The resulting suspension was incubated under agitation for 60 min at 37° C. The samples were then centrifuged at 800×g for 10 min. Release of hemoglobin was monitored by measuring the absorbance of the supernatant at 540 nm. Controls for zero hemolysis (blank) and 100% hemolysis consisted of hRBC suspended in PBS and Triton 1%, respectively.

[8] = system: Enterococcus faecalis ATCC 29212
Method in brief: as §1

[9] = system: Enterobacter cloacae ATCC 49141
Method in brief: as §1

[10] = system: Acinetobacter baumannii ATCC 19606
Method in brief: as §1

[11] = system: Cryptococcus neoformans ATCC 66031; assay: microbe, parasite or virus in culture
Method in brief: as §2

[12] = system: methicilin-resistant Staphylococcus aureus (MRSA) ATCC 700698
Method in brief: as §1

Structure (SMILES): CCCCCCCCCCC(=O)NCC(=O)N[C@H](C(=O)NCC(=O)N[C@@H](CCCCN)C(=O)N[C@@H](Cc1ccccc1)C(=O)N[C@H](CC(C)C)C(=O)N[C@@H](Cc1c[nH]cn1)C(=O)N[C@@H](CO)C(=O)N[C@@H](C)C(=O)N[C@H](CCCCN)C(=O)N[C@@H](CCCCN)C(=O)N[C@@H](Cc1c[nH]c2ccccc12)C(=O)NCC(=O)N[C@@H](CCCCN)C(=O)N[C@@H](C)C(=O)N[C@H](Cc1ccccc1)C(=O)N[C@H](C(=O)NCC(=O)N[C@H](CCC(=O)O)C(=O)N[C@H](C(=O)N[C@@H](CCSC)C(=O)N[C@@H](CC(N)=O)C(=O)N[C@@H](CO)C(N)=O)[C@@H](C)CC)C(C)C)[C@@H](C)CC [[D]4magainin-UA] (Undecanoyl-GIGKF[dL]HSA[dK]KWGKA[dF]VG[dE]IMNS-NH2)
- Minimal Inhibitory Concentration, B. subtilis (ATCC 6051) (B. subtilis ATCC 6051): 6.25 µM
- MIC [1]: 6.25 µM (≈ 16.7 µg/mL)
- Minimal Inhibitory Concentration, Aspergillus fumigatus (ATCC 26430) [2]: >50 µM
- Minimal Inhibitory Concentration, S. aureus ATCC 6538P [3]: 50 µM
- Minimal Inhibitory Concentration, P. aeruginosa ATCC 27853 [4]: 50 µM
- Minimal Inhibitory Concentration, E. coli (ATCC 25922) [5]: >50 µM
- MIC [6]: >50 µM
- % of Hemolytic activity at maximal MIC [7]: 2%

Structure (SMILES): CCCCCCCCCCCCCCCC(=O)NCC(=O)N[C@H](C(=O)NCC(=O)N[C@@H](CCCCN)C(=O)N[C@@H](Cc1ccccc1)C(=O)N[C@H](CC(C)C)C(=O)N[C@@H](Cc1c[nH]cn1)C(=O)N[C@@H](CO)C(=O)N[C@@H](C)C(=O)N[C@H](CCCCN)C(=O)N[C@@H](CCCCN)C(=O)N[C@@H](Cc1c[nH]c2ccccc12)C(=O)NCC(=O)N[C@@H](CCCCN)C(=O)N[C@@H](C)C(=O)N[C@H](Cc1ccccc1)C(=O)N[C@H](C(=O)NCC(=O)N[C@H](CCC(=O)O)C(=O)N[C@H](C(=O)N[C@@H](CCSC)C(=O)N[C@@H](CC(N)=O)C(=O)N[C@@H](CO)C(N)=O)[C@@H](C)CC)C(C)C)[C@@H](C)CC [[D]4magainin-PA] (Palmitoyl-GIGKF[dL]HSA[dK]KWGKA[dF]VG[dE]IMNS-NH2)
- Minimal Inhibitory Concentration, B. subtilis (ATCC 6051) (B. subtilis ATCC 6051): 50 µM
- MIC [1]: 6.25 µM (≈ 17.1 µg/mL)
- Minimal Inhibitory Concentration, Aspergillus fumigatus (ATCC 26430) [2]: >50 µM
- Minimal Inhibitory Concentration, S. aureus ATCC 6538P [3]: >50 µM
- Minimal Inhibitory Concentration, P. aeruginosa ATCC 27853 [4]: >50 µM
- Minimal Inhibitory Concentration, E. coli (ATCC 25922) [5]: >50 µM
- MIC [6]: >50 µM
- % of Hemolytic activity at maximal MIC [7]: 8%

Structure (SMILES): CCCCCCCCCCCC(=O)N[C@H](CC(C)C)C(=O)N[C@@H](Cc1cnc[nH]1)C(=O)N[C@@H](Cc1cnc[nH]1)C(=O)N[C@H](CC(C)C)C(=O)N[C@H](CC(C)C)C(=O)N[C@@H](Cc1cnc[nH]1)C(=O)N[C@@H](Cc1cnc[nH]1)C(=O)N[C@H](CC(C)C)C(=O)N[C@H](CC(C)C)C(=O)N[C@@H](Cc1cnc[nH]1)C(=O)N[C@@H](Cc1cnc[nH]1)C(=O)N[C@H](CC(C)C)C(N)=O [lipopeptide 26, (CH3-(CH2)10-CO-)-D-Leu-His-His-D-Leu-D-Leu-His-His-D-Leu-D-Leu-His-His-D-Leu-NH2] (Lauroyl-[dL]HH[dL][dL]HH[dL][dL]HH[dL]-NH2)
- hemolytic activity ([7]; up to a concentration of 25 μM, human red blood cells (FIGS. 6-7)): do not exert hemolytic activity

Structure (SMILES): CCCCCCCCCCCCCCCC(=O)N[C@@H](CCCCN)C(=O)N[C@@H](C)C(=O)N[C@@H](C)C(=O)N[C@@H](C)C(=O)N[C@@H](CCCCN)C(=O)N[C@@H](C)C(=O)N[C@@H](C)C(=O)N[C@@H](C)C(=O)N[C@@H](CCCCN)C(=O)N[C@@H](C)C(=O)N[C@@H](C)C(=O)N[C@@H](CCCCN)C(N)=O [lipopeptide 6, (CH3—(CH2)14—CO—)-Lys-Ala-Ala-Ala-Lys-Ala-Ala-Ala-Lys-Ala-Ala-Lys-NH2] (Palmitoyl-KAAAKAAAKAAK-NH2)
- Minimal Inhibitory Concentration, A. fumigatus ATCC 26430 ([2]; Table 10, pH 7.4): 12.5 µM
- Minimal Inhibitory Concentration, E. faecalis ([8]; Table 4, pH 7.4): 50 µM
- Minimal Inhibitory Concentration, S. aureus ([3]; Table 4, pH 7.4): 50 µM
- Minimal Inhibitory Concentration, E. cloacae ([9]; Table 4, pH 7.4): 100 µM
- Minimal Inhibitory Concentration, P. Aeruginosa ([4]; Table 4, pH 7.4): 25 µM
- Minimal Inhibitory Concentration, E. coli ([5]; Table 4, pH 7.4): 50 µM
- Minimal Inhibitory Concentration, A. Baumaannii ([10]; Table 4, pH 7.4): 25 µM
- Minimal Inhibitory Concentration, C. albicans ATCC 10231 ([6]; Table 10, pH 7.4): 3.125 µM
- Minimal Inhibitory Concentration, C. neoformans ATCC 66031 ([11]; Table 10, pH 7.4): 1.56 µM
- hemolytic activity ([7]; at concentrations lower than 12 μM, human red blood cells (FIGS. 1-5)): do not exhibit significant hemolytic activity

Structure (SMILES): CCCCCCCCCCC(=O)N[C@@H](CCCCN)C(=O)N[C@@H](CC(C)C)C(=O)N[C@H](CC(C)C)C(=O)N[C@H](CC(C)C)C(=O)N[C@@H](CCCCN)C(=O)N[C@@H](CC(C)C)C(=O)N[C@@H](CC(C)C)C(=O)N[C@H](CC(C)C)C(=O)N[C@@H](CCCCN)C(=O)N[C@H](CC(C)C)C(=O)N[C@@H](CC(C)C)C(=O)N[C@@H](CCCCN)C(N)=O [lipopeptide 10, (CH3—(CH2)9—CO—)-Lys-Leu-D-Leu-D-Leu-Lys-Leu-Leu-D-Leu-Lys-D-Leu-Leu-Lys-NH2] (Undecanoyl-KL[dL][dL]KLL[dL]K[dL]LK-NH2)
- Minimal Inhibitory Concentration, A. fumigatus ATCC 26430 ([2]; ATCC 26430, pH 7.4): 6.25 µM
- Minimal Inhibitory Concentration, E. faecalis ([8]; ATCC 29212, pH 7.4): 3.125 µM
- Minimal Inhibitory Concentration, S. aureus ([3]; ATCC 6538, pH 7.4): 3.125 µM
- Minimal Inhibitory Concentration, E. cloacae ([9]; ATCC 49141, pH 7.4): 1.56 µM
- Minimal Inhibitory Concentration, S. aureus (MRSA) ([12]; ATCC 700698, pH 7.4): 3.125 µM
- activity against MRSA ([12]; in words, summary of Table 4): highly active
- Minimal Inhibitory Concentration, P. Aeruginosa ([4]; ATCC 27853, pH 7.4): 3.25 µM
- Minimal Inhibitory Concentration, E. coli ([5]; ATCC 25922, pH 7.4): 6.25 µM
- Minimal Inhibitory Concentration, A. Baumaannii ([10]; ATCC 19606, pH 7.4): 3.125 µM
- Minimal Inhibitory Concentration, C. albicans ATCC 10231 ([6]; ATCC 10231, pH 7.4): 3.125 µM
- Minimal Inhibitory Concentration, C. neoformans ATCC 66031 ([11]; ATCC 66031, pH 7.4): 1.56 µM
